This note sets out measurements from patent US20080021026A1, “BENZOTHIOPHENE INHIBITORS OF RHO KINASE” (priority 2006, published 2008).

In test [1] the target is T1, recombinant N-terminal GST-tagged human Rho kinase 2 (ROCK2, amino acids 1-552) (Homo sapiens, UniProt O75116).
T1 construct: ROCK2, amino acids 1-552; purchased Invitrogen Inc. PV3759
As to the kind of experiment: In vitro Rho kinase assay (luciferase-based ATP consumption), ROCK2. It counts as biochemical. Particulars: recombinant GST-tagged human ROCK2, luciferase-based ATP consumption; read-out: ROCK2 IC50. Summed up: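 GST-ROCK2 (aa 1-552, 0.82 μg/ml) with 100 μg/ml S6 peptide and 3 µM ATP in Tris pH 7.5 buffer with MgCl2/CaCl2/EGTA/BSA, compound added just after reaction start, 2 h at 30 °C. Remaining ATP read by luciferase luminescence. Efficacy expressed as percentage of H-1152P positive control.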

In test [2] the target is T2, recombinant N-terminal GST-tagged human Rho kinase 1 (ROCK1, amino acids 1-535) (Homo sapiens, UniProt Q13464).
T2 construct: ROCK1, amino acids 1-535; purchased Invitrogen Inc. PV-3691
T2 sequence (Q13464 1-535): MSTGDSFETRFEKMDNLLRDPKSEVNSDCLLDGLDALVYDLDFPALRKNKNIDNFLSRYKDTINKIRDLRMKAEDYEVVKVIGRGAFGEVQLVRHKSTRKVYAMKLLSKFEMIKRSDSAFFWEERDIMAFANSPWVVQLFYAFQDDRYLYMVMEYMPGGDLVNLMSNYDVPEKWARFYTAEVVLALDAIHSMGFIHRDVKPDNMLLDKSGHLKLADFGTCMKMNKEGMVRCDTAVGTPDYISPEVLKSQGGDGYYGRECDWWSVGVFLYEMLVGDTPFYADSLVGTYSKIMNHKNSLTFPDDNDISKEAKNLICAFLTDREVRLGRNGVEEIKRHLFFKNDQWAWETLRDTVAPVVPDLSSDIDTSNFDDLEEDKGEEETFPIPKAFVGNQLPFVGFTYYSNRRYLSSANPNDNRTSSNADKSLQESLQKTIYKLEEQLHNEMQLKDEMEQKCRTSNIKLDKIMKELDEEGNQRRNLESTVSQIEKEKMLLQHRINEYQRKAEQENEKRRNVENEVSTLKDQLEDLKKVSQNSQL
As to the kind of experiment: In vitro Rho kinase assay (luciferase-based ATP consumption), ROCK1. It counts as biochemical. The note with it: recombinant GST-tagged human ROCK1, luciferase-based ATP consumption; read-out: ROCK1 IC50. Summed up:
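GST-ROCK1 (aa 1-535) at 0.82 μg/ml with 100 μg/ml S6 peptide and 3 µM ATP in Tris pH 7.5 buffer with MgCl2, CaCl2, EGTA, BSA; compound added after reaction start, 2 h at 30 °C. Remaining ATP read by luciferase luminescence; efficacy as percent of H-1152P positive control.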

Test [3] relates to lasered (hypertensive) eyes of conscious cynomolgus monkeys. As to the kind of experiment: Acute IOP response in lasered (hypertensive) eyes of conscious cynomolgus monkeys. It counts as in vivo. Particulars: instilled in right eye, IOP measured at 1, 3 and 6 hours, peak reduction; for Peak % Lowering of IOP vs. Control at 0.3%: compound concentration 0.3%. An excerpt: Acute IOP Response in Lasered (Hypertensive) Eyes of Conscious Cynomolgus Monkeys
Intraocular pressure (IOP) can be determined with an Alcon Pneumatonometer after light corneal anesthesia with 0.1% proparacaine. Eyes are washed with saline after each measurement. After a baseline IOP measurement, test compound is instilled in one […] aliquot to the right eyes only of nine cynomolgus monkeys. Vehicle is instilled in the right eyes of six additional animals. Subsequent IOP measurements are taken at 1, 3, and 6 hours, and peak reduction in IOP is reported below in Table 2 as percent of IOP lowering versus the control for each of the given concentrations of compound.
A more detailed description of the assay used herein may be found in May et al., “Evaluation of the Ocular Hypotensive Response of Serotonin 5-HT1A and 5-HT2 Receptor Ligands in Conscious Ocular Hypertensive Cynomolgus Monkeys,” J. of Pharmacology and Experimental Therapeutics, vol. 306(1), pp. 301-309 (2003), the disclosure of which is hereby incorporated by reference as if written herein in its entirety.

T1 sequence (O75116 1-552): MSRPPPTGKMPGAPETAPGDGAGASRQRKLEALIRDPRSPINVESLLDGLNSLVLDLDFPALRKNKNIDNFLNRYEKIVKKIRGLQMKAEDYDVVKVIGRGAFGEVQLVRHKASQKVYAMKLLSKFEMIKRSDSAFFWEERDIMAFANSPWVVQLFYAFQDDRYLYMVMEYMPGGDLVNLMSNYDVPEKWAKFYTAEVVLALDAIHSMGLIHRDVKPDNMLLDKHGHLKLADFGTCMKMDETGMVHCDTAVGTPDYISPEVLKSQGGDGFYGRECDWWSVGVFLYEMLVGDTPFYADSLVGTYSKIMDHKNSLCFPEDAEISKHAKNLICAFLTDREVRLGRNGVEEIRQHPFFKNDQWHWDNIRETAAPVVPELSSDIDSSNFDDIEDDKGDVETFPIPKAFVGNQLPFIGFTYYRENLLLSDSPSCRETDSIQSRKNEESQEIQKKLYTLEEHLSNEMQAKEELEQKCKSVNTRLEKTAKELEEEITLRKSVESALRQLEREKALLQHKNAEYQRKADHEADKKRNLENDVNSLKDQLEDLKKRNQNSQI

For the compound `COc1cccc(Cc2ccc3sc(-c4ccnc(N)n4)c(C)c3c2)c1` [Example 26, 4-(5-(3-Methoxybenzyl)-3-methylbenzo[b]thiophen-2-yl)pyrimidin-2-amine], the IC50 in test [1] and in test [2] was less than 5 µM in each case. For the same compound, the “Peak % Lowering of IOP vs. Control at 0.3%” value (shortened to “Peak % Lowering … at 0.3%”) in test [3] is listed as 9.8%.

Turning to `COc1cccc(Nc2ccc3sc(-c4ccnc(N)n4)c(C)c3c2)c1` [Example 51, 4-(5-(3-Methoxyphenylamino)-3-methylbenzo[b]thiophen-2-yl)pyrimidin-2-amine], the IC50 in test [1] and in test [2] was less than 5 µM throughout. Also, in test [3], the “Peak % Lowering … at 0.3%” value came to 9.5%. Moreover, the “Peak % Lowering of IOP vs. Control at 1.0%” value in test [3] (compound concentration 1.0%) is given as 18.6%.

Turning to `Cc1c(-c2ccnc(N)n2)sc2ccc(Cc3cccc(O)c3)cc12` [Example 27, 3-((2-(2-Aminopyrimidin-4-yl)-3-methylbenzo[b]thiophen-5-yl)methyl)phenol], the IC50 in test [1] and in test [2] was less than 5 µM throughout. Further, the “Peak % Lowering … at 0.3%” value in test [3] was determined as 3.6%.

With `Cc1c(-c2ccnc(N)n2)sc2ccc(CNC(=O)C(O)CCl)cc12` (stereo not shown) [Example 112, Cc1c(sc2ccc(CNC(═O)C(O)CCl)cc12)-c3ccnc(N)n3], the IC50 in test [1] is less than 5 µM; in test [2] it was greater than 5 µM.

Turning to `Cc1c(-c2ccnc(N)n2)sc2ccc(Nc3cccc(NC(=O)c4ccc(O)cc4)c3)cc12` [Example 61, N-(3-(2-(2-Aminopyrimidin-4-yl)-3-methylbenzo[b]thiophen-5-ylamino)phenyl)-4-hydroxybenzamide], the IC50 in test [1] and in test [2] was less than 5 µM each time.

Turning to `CC(=O)NC(Cc1ccc(O)cc1)C(=O)NCc1ccc2sc(-c3ccnc(N)n3)c(C)c2c1` (stereo not shown) [Example 299, CC(═O)N[C](Cc1ccc(O)cc1)C(═O)NCc2ccc3sc(c(C)c3c2)-c4ccnc(N)n4], the IC50 in test [1] and in test [2] was greater than 5 µM throughout.

As to `Cc1c(-c2ccnc(N)n2)sc2ccc(CNC(=O)c3cc(O)ccc3[N+](=O)[O-])cc12` [Example 227, Cc1c(sc2ccc(CNC(═O)c3cc(O)ccc3[N+]([O−])═O)cc12)-c4ccnc(N)n4], the values for the IC50 in test [1] and in test [2] were less than 5 µM and greater than 5 µM, respectively.

With `Cc1c(-c2c[nH]c3ncccc23)sc2ccc(Cl)cc12` [Example 5, 3-(5-Chloro-3-methylbenzo[b]thiophen-2-yl)-1H-pyrrolo[2,3-b]pyridine], the IC50 in test [1] and in test [2] was greater than 5 µM in each case.

With `Cc1cc(C)c(C(=O)NCc2ccc3sc(-c4ccnc(N)n4)c(C)c3c2)c(C)c1` [Example 170, Cc1cc(C)c(c(C)c1)C(═O)NCc2ccc3sc(c(C)c3c2)-c4ccnc(N)n4], the IC50 is less than 5 µM in test [1] and greater than 5 µM in test [2].
